Laboratory results published in ChEMBL document CHEMBL1759914, “The solvolysis of topotecan in alcohols and acetic anhydride” (Bioorg Med Chem Lett, 2011).

Experiments:
KB = test: Antitumor activity against human KB cells by WST-1 assay; type: functional, cell-based
HepG2 = test: Antitumor activity against human HepG2 cells by WST-1 assay; type: functional, cell-based
[1] = Antitumor activity against mouse C26 cells by WST-1 assay; type: functional, cell-based
[2] = Ratio of compound IC50 to 10-hydroxycamptothecin IC50 for mouse C26 cells; type: functional

Row | Compound | IC50 (KB) [µM] | IC50 (HepG2) [µM] | IC50 [1] [µM] | Ratio IC50 [2]
1 | CCOCc1c(O)ccc2nc3c(cc12)Cn1c-3cc2c(c1=O)COC(=O)[C@]2(O)CC | 19.7 | 3.91 | 29.1 | 
2 | CC[C@@]1(O)C(=O)OCc2c1cc1n(c2=O)Cc2cc3c(COC(C)=O)c(OC(C)=O)ccc3nc2-1 | 0.794 | 1 | 0.157 | 3
3 | CC[C@@]1(O)C(=O)OCc2c1cc1n(c2=O)Cc2cc3c(COC)c(O)ccc3nc2-1 | 25.4 | 92.1 | 101 | 
4 | CC[C@@]1(O)C(=O)OCc2c1cc1n(c2=O)Cc2cc3c(COC(C)C)c(O)ccc3nc2-1 | 7.25 | 13.5 | 3.88 | 
5 | CC[C@@]1(O)C(=O)OCc2c1cc1n(c2=O)Cc2cc3c(COC(C)(C)C)c(O)ccc3nc2-1 | 1.38 | 0.802 | 0.273 | 
6 | CC[C@@]1(OC(C)=O)C(=O)OCc2c1cc1n(c2=O)Cc2cc3c(COC(C)=O)c(OC(C)=O)ccc3nc2-1 | 1.15 | 1.31 | 0.424 | 
7 | CC[C@@]1(O)C(=O)OCc2c1cc1n(c2=O)Cc2cc3cc(O)ccc3nc2-1 [HYDROXYCAMPTOTHECIN] | 0.829 | 0.981 | 0.496 | 
